Here are results for 2 molecules from publication PMC6708471 (Cell calcium, 2019).

The target of experiment [1] is T1, calmodulin (CaM) (Homo sapiens, UniProt P0DP25). In words: […]-1H HSQC NMR titration. The class given is binding.
Experiment [2] has as its target T1, calmodulin (CaM). In words: X-ray crystal structure. The class given is biochemical.

On to `COc1ccc(S(=O)(=O)Nc2ccccc2CN(C)C/C=C/c2ccc(Cl)cc2)cc1` [KN92], for which the “15N-1H HSQC NMR titration (intermediate exchange, modest affinity)” value in experiment [1] is listed as “We found that KN92 also affects the CaM NMR spectrum as many of the cross peaks disappear”.

The EC50 is the concentration at which the effect is half-maximal. Read a high EC50 as a less potent agent. Molecule `COc1ccc(S(=O)(=O)N(CCO)c2ccccc2CN(C)C/C=C/c2ccc(Cl)cc2)cc1` [KN93] registered an EC50 in experiment [2] of 5.1 ± 1.4 µM.
